Source: patent US6589949B1, “3-oxo-2,1-benzisoxazol-1(3H)-carboxamides for treatment of CNS diseases” (Bayer Aktiengesellschaft, priority 1999, dated 2003)

What was measured:
[1] = molecular target: T1, acylpeptide hydrolase (ACPH) (Rattus norvegicus, UniProt P13676); experiment: In vitro determination of the inhibition of ACPH; assay type: biochemical; details: rat brain homogenate; substrate 100 μM N-acetyl-methionyl-aminomethyl-coumarin; 30 min preincubation, 30 min reaction
T1 construct: 50 μl of brain homogenate and 100 μM N-acetyl-methionyl-aminomethyl-coumarin as the enzyme substrate; from tissue; host or cells: rat brain homogenate
T1 sequence (P13676 1-732): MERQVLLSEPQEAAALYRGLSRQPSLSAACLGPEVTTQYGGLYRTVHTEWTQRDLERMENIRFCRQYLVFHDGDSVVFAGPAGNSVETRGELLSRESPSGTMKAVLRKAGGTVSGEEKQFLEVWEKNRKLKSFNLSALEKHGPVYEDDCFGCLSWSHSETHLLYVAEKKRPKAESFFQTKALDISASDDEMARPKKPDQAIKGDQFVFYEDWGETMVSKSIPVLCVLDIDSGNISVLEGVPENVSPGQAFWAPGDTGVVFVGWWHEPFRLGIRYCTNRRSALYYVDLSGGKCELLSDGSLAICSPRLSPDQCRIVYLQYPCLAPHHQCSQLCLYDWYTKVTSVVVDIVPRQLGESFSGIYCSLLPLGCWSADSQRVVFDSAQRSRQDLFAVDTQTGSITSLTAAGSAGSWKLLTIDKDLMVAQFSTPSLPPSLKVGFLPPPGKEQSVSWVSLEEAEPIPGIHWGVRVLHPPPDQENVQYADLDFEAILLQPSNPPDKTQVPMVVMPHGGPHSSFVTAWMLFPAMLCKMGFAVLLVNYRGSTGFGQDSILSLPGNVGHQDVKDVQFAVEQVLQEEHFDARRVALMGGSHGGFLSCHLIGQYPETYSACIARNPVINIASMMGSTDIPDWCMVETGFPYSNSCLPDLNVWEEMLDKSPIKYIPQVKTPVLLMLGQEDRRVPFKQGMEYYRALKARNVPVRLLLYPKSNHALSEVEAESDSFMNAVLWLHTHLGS
Protocol: In vitro determination of the Inhibition of ACPH
In the standard experiment, rat brains are homogenized in a 10-fold volume (w/v) of 50 mM tris HCl buffer, 1 mM EDTA, 100 mM NaCl, 0.1% BSA, 1 mM DDT, pH 7.2. The protein concentration of the homogenate is adjusted to approximately 5 mg/ml by dilution with buffer. The incubation batch (110 μl) contains 40 μl of buffer, various test concentrations of the test substances to be tested in 10 μl of buffer, 50 μl of brain homogenate and 100 μM N-acetyl-methionyl-aminomethyl-coumarin as the enzyme substrate. Before addition of the substrate, the reaction mixture is preincubated at room temperature for 30 min. The enzyme reaction is started by substrate addition. The reaction time is 30 min. Afterwards, the samples are activated in a fluorimeter at 390 nm and determined quantitatively at 460 nm. The IC50 value is calculated from the enzyme activity in the presence of increasing concentrations of test substance in the test. For the measurement of the ACPH activity, purified enzyme from liver or other organs can also be used and also homogenates of other organs having ACPH activity, such as liver or erythrocytes.

Compound	melting point	IC50 [1]
CN(CCCl)C(=O)n1oc(=O)c2cc(Cl)ccc21	52 °C	
O=C(N1CCC1)n1oc(=O)c2ccccc21 [Example 2]	163 °C	
O=C(N1CCCC1)n1oc(=O)c2ccccc21 [Example 3]	99 °C	
O=C(N1CCCC1)n1oc(=O)c2c(F)cccc21 [Example 4]	109 °C	6 nM
CN(C)C(=O)n1oc(=O)c2ccccc21 [Example 5]	93 °C	18 nM
Cc1ccc2c(c1)c(=O)on2C(=O)N1CCCC1 [Example 6]	129 °C	48 nM
O=C(N1CCCC1)n1oc(=O)c2cc(F)c(F)cc21 [Example 7]	133 °C	99 nM
O=C(N1CCCC1)n1oc(=O)c2cc(Cl)ccc21 [Example 8]	103 °C	
O=C(N1CCOCC1)n1oc(=O)c2ccc(Cl)cc21 [Example 10]	116 °C	
O=C(N1CC2CCC2C1)n1oc(=O)c2ccc(Cl)cc21 (centres unmarked) [Example 12]	98 °C	
O=C(N1CCOCC1)n1oc(=O)c2c(F)cccc21 [Example 14]	141 °C	
O=C(N1CC2CCC2C1)n1oc(=O)c2cc(Cl)ccc21 (centres unmarked) [Example 15]	85 °C	
O=C(N1CCOCC1)n1oc(=O)c2cc(Cl)ccc21 [Example 19]	153 °C	
